Assays:
[1] = test system: Caenorhabditis elegans; experiment: C. elegans L1 larvae dose-response, 5 day visual viability score (Examples 2 and 7); format: in vivo; set-up: key: Dead: only stiff L1s (no movement); Dead (L4): worms are dead, but at a later larval stage; majority of worms are L1 (based on size); majority of worms are L2 (based on size); majority of worms are L3 (based on size); majority of worms are L4 (based on size); AD: majority of worms are adult; #AD: 5 adult worms or less; B!: sterile (0-25 progeny); B: low broodsize (25-100 progeny); ˜B: moderate broodsize (100-250 progeny); <: reduced broodsize (250-500 progeny); OK: no effect (˜1000+ progeny); details: day 5, Table 3; for 5 Day Visual Score V6: 0.3 μM (procedure of Example 2); for 5 Day Visual Score V5: 0.9 μM (procedure of Example 2); for 5 Day Visual Score V4: 2.6 μM (procedure of Example 2); for 5 Day Visual Score V2: 23.3 μM (procedure of Example 2); for 5 Day Visual Score V1: 70 μM (procedure of Example 2); for 5 Day Visual Score V3: 7.8 μM (procedure of Example 2)
Procedure: Caenorhabditis elegans adults were grown on Nematode Growth Medium (NGM) until they produced eggs, then the adults were removed.
The eggs were allowed to hatch, and the L1 larvae collected. See The Neniatode Caenorhabditis elegans (1988) Cold Spring Harbor Laboratory Press. Using a Matrix Programmable Pipette, the L1s were distributed into 96-well tissue culture plates, 20 L1 in 50 μl NGM per well. Antibiotic/Antimyotic was added to each well, and 1% by weight E. coli strain HB101. The subject anthelmintic compounds were stored at 5 mM in 100% DMSO. 0.7 μl of compounds 1-31 were added to the left-most column of wells to yield a final concentration of 70 μM in 1.4% DMSO, with 1.4% DMSO only as the control. The compounds were then subjected to 5 more 3-fold dilutions from left to right to yield 6 column concentrations of 70 μM, 23.3 μM, 7.8 μM, 2.6 μM, 0.9 μM, and 0.3 μM. Plates were stored in air-tight Rubbermaid plastic boxes at 20° C. The nematodes had cleared all control wells by day 4, and nematode viability was scored by visual examination under a 100× dissecting microscope on day 5. A visual viability scoring system was used as follows:
If several classes of worms exist in a well, then all classes are scored. If adults are present, then the brood score is also recorded. Thus, “L1/L2” would mean a mixture of L1's and L2's are present in the well. “L4/#AD/B” would mean that a mixture of L4's and adults are resent in the well. The “#AD” would mean that there are 6 or less adults, and the “B” would mean that there were 100 progeny or less.
Column VI has a compound concentration of 70 μM with sequential 3-fold dilutions reported in columns V2, V3, V4, V5, and V6, respectively, such that the V6 concentration was 0.3 μM.
(§1) The nematicidal activity of anthelmintic Compositions 48-118 were determined in accordance with the procedure outlined in Example 2.

[2] = test system: Caenorhabditis elegans; experiment: HTS runs (initial and follow-up): mOD, % Run and visual score (Table 3); format: in vivo; set-up: key to Initial HTS Run Visual Score / Follow-up HTS Run Visual Score: Dead: only stiff L1s (no movement); Dead (L4): worms are dead, but at a later larval stage; majority of worms are L1 (based on size); majority of worms are L2 (based on size); majority of worms are L3 (based on size); majority of worms are L4 (based on size); AD: majority of worms are adult; #AD: 5 adult worms or less; B!: sterile (0-25 progeny); B: low broodsize (25-100 progeny); ˜B: moderate broodsize (100-250 progeny); <: reduced broodsize (250-500 progeny); OK: no effect (˜1000+ progeny)
Procedure: as §1

SMILES	5 Day Visual Score V6 [1]	5 Day Visual Score V5 [1]	5 Day Visual Score V4 [1]	5 Day Visual Score V2 [1]	5 Day Visual Score V1 [1]	Follow-up HTS Run % Run [2] [%]	Follow-up HTS Run mOD [2] [mOD]	Initial HTS Run % Run [2] [%]	Initial HTS Run Visual Score [2]	Initial HTS Run mOD [2] [mOD]	5 Day Visual Score V3 [1]	Follow-up HTS Run Visual Score [2]
CN(Cc1ccccc1)c1cc(Oc2cccc(F)c2)ncn1 [AKC 344]	OK (no effect (˜1000+ progeny))	OK (no effect (˜1000+ progeny))	OK (no effect (˜1000+ progeny))	Dead	Dead	119	161	131	L2	256		
Fc1ccc(Oc2cc(N3CCc4ccccc4C3)ncn2)cc1 [AKC 345]	OK (no effect (˜1000+ progeny))	OK (no effect (˜1000+ progeny))	OK (no effect (˜1000+ progeny))	L1	L1	114	154	135	L1	264	L4	
NS(=O)(=O)c1ccc(NC(=O)CN2CCCC(NC(=O)c3cc4ccccc4o3)C2)cc1 (stereo not drawn) [AKC 348]	B (low broodsize (25-100 progeny))	< (reduced broodsize (250-500 progeny))		Dead	Dead	123	166	126	Dead	246	Dead	
CCC(C)Nc1cc(Oc2ccc3oc4ccccc4c3c2)ncn1 (stereo not drawn) [AKC 349]	OK (no effect (˜1000+ progeny))	OK (no effect (˜1000+ progeny))	OK (no effect (˜1000+ progeny))	OK (no effect (˜1000+ progeny))		103	139	127	2AD/B!	247	#AD/˜B	B (low broodsize (25-100 progeny))
CCN(C)c1cc(Oc2ccc3ccccc3c2)ncn1 [AKC 350]	OK (no effect (˜1000+ progeny))	OK (no effect (˜1000+ progeny))	OK (no effect (˜1000+ progeny))	L1	L1	101	136	126	Dead	245		Dead
Fc1ccc(F)c(CNc2cc(Oc3cccc(Cl)c3)ncn2)c1 [AKC 354]	< (reduced broodsize (250-500 progeny))	OK (no effect (˜1000+ progeny))	< (reduced broodsize (250-500 progeny))		Dead	108	146	137	1AD/B	267	#AD/˜B	B (low broodsize (25-100 progeny))
FC(F)(F)c1ccc(CNc2cc(Oc3cccc(Cl)c3)ncn2)cc1 [AKC 356]	< (reduced broodsize (250-500 progeny))	OK (no effect (˜1000+ progeny))	OK (no effect (˜1000+ progeny))	Dead	Dead	122	165	139	Dead	272		L2
COc1ccc(Oc2cc(NCc3ccc(C(F)(F)F)cc3)ncn2)cc1 [AKC 357]	OK (no effect (˜1000+ progeny))	OK (no effect (˜1000+ progeny))	OK (no effect (˜1000+ progeny))		Dead	98	132	115	3AD/B	224		L4/AD/B!
Fc1ccc(Oc2cc(NCc3ccc(C(F)(F)F)cc3)ncn2)cc1 [AKC 358]	OK (no effect (˜1000+ progeny))	OK (no effect (˜1000+ progeny))	OK (no effect (˜1000+ progeny))	Dead	Dead	113	153	129	Dead	252		L3-Dead L3
FC(F)(F)c1ccc(CNc2cc(Oc3ccccc3Cl)ncn2)cc1 [AKC 360]	OK (no effect (˜1000+ progeny))	OK (no effect (˜1000+ progeny))	OK (no effect (˜1000+ progeny))	Dead	Dead	112	151	139	1AD/B!-No P	272	OK (no effect (˜1000+ progeny))	L4/AD/B!
CN(c1cc(Oc2ccc(-c3ccccc3)cc2)ncn1)C1CCCCC1 [AKC 363]	OK (no effect (˜1000+ progeny))	OK (no effect (˜1000+ progeny))	OK (no effect (˜1000+ progeny))	< (reduced broodsize (250-500 progeny))	Dead	122	165	141	Dead	275	˜B (moderate broodsize (100-250 progeny))	Dead
